Entries after “also recorded” stand apart in the source; their conditions may differ.
Legend:
[1] = tested on: MCF-7; assay: MTT antiproliferative assay, MCF-7; assay type: cell-based; conditions: Homo sapiens, MCF7, breast cancer MCF-7
Method: (§1) The in vitro antiproliferative activities of the newly synthesized compounds were evaluated against a panel of three human tumor cell lines, namely, breast cancer (MCF-7), hepatocellular carcinoma (HepG-2), and colorectal carcinoma (HCT-116) using the standard MTT method. The tested cell lines were selected depending on their VEGF overexpression. Sorafenib, the lead drug, was coassayed as a positive control.
(§2) The antiproliferative activity of the synthesized compounds was evaluated using MTT protocol as described (Supplementary data (available here)).

[2] = tested on: HepG-2; assay: MTT antiproliferative assay, HepG-2; assay type: cell-based; conditions: Homo sapiens, HepG2, hepatocellular carcinoma HepG-2
Method: as §1, §2

[3] = tested on: HCT-116; assay: MTT antiproliferative assay, HCT-116; assay type: cell-based; conditions: Homo sapiens, colorectal carcinoma HCT-116
Method: as §1, §2

[4] = tested on: WI-38 cell line (normal human lung fibroblasts); assay: MTT cytotoxicity against normal cells WI-38; assay type: cell-based; conditions: normal human lung fibroblasts WI-38
Method: The cytotoxicity values of the synthesized compounds against the WI-38 cell line (normal human lung fibroblasts) were also evaluated in vitro.
as §2

[5] = biological target: VEGFR-2 (Homo sapiens, UniProt P35968); assay: In vitro VEGFR-2 enzyme inhibition assay; assay type: biochemical; conditions: read-out: IC50 against VEGFR-2
Sequence of VEGFR-2 (P35968 20-1356): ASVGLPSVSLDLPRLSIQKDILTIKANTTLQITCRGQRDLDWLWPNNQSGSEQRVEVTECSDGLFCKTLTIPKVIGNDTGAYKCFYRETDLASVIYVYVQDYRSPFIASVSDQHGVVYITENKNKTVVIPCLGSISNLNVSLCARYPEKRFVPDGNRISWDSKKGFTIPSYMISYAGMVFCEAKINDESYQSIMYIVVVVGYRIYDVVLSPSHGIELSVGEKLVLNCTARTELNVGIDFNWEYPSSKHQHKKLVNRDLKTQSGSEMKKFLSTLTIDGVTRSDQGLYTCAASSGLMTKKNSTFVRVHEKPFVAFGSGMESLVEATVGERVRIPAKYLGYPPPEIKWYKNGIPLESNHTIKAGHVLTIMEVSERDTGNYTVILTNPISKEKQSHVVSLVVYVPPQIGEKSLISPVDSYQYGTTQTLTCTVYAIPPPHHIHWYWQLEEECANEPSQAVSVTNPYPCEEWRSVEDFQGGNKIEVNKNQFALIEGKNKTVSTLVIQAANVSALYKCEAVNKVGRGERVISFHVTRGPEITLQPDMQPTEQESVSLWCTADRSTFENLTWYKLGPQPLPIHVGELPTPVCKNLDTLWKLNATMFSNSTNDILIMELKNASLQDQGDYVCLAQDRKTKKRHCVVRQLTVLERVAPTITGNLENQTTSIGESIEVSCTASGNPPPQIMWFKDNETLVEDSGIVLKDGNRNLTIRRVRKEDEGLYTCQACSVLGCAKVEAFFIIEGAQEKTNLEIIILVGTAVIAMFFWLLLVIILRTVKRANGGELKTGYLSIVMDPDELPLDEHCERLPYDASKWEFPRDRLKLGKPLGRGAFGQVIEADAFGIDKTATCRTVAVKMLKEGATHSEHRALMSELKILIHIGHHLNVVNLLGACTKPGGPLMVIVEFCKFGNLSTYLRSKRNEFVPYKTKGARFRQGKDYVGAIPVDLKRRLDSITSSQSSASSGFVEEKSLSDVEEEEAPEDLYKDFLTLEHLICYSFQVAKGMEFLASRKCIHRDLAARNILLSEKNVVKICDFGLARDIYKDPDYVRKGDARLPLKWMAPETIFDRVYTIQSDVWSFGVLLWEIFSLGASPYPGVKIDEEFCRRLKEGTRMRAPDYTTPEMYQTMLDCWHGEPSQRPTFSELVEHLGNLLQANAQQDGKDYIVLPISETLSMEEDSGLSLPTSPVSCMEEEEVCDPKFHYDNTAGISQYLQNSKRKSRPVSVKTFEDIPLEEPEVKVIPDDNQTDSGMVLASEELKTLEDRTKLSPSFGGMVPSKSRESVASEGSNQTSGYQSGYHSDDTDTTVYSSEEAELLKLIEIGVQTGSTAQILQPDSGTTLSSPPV

[6] = tested on: caspase-3; assay: Active caspase-3 level in HepG-2 cells; assay type: cell-based, human; conditions: for Caspase 3 Conc.: HepG-2 cells treated with compound; for Caspase 3 Fold: HepG-2 cells, versus control
From the text: (1) Effects on the Levels of Active Caspase-3. A significant mechanism by which anticancer agents can affect cancer cells is apoptosis. Apoptosis is a process of automated cell death. The apoptosis mechanism is typically mediated by a group of proteases called caspases. Caspase-3 is activated in every mammalian cell type provoking the cell to die, considered one of the apoptosis marks.
(1) Effects on the Levels of Active Caspase-3. […] (Supplementary data).

[7] = tested on: BAX; assay: BAX level in HepG-2 cells; assay type: cell-based, human; conditions: for BAX Conc.: HepG-2 cells treated with compound; for BAX Fold: HepG-2 cells, versus control
From the text: (§3) (2) Effects on Bcl-2 Family Proteins. The Bcl-2 family proteins are vital regulators of apoptosis cell death. Members of this family include the proapoptotic factor Bax which promotes cell death and the prosurvival (antiapoptotic) Bcl-2 which suppresses cell death. […] Results are expressed in Table 3.
(§4) (2) Effects on Bcl-2 Family Proteins. […] (Supplementary data).

[8] = tested on: Bcl-2; assay: Bcl-2 level in HepG-2 cells; assay type: cell-based, human; conditions: for Bcl-2 Conc.: HepG-2 cells treated with compound; for Bcl-2 Fold: HepG-2 cells, versus control
From the text: as §3, §4

[9] = tested on: TNF-α; assay: TNF-α in HepG-2 supernatant (ELISA); assay type: cell-based, human
From the text: (1) Estimation of Human Tumor Necrosis Factor Alpha (TNF-α) in HepG-2 Supernatant. […] Celecoxib, a potent inhibitor of TNF-α-induced cytokine expressions, was used as a positive control. […] Among the tested compounds, compound 7a caused a remarkably significant reduction in TNF-α levels (87%) in comparison to celecoxib (86%).
The levels of TNF-α in cell culture supernatants were estimated by the ELISA technique according to the reported procedure.

[10] = tested on: HepG-2 cells; assay: Cell cycle analysis by flow cytometry; assay type: cell-based, human; conditions: HepG-2, compound at its IC50 concentration
Method: (3) Cell Cycle Analysis. For further investigation of the apoptotic capacity of compound 7a, flow cytometric analysis was carried out on the HepG-2 cancer cell line treated with the tested compound at its IC50 concentrations using untreated HepG-2 cancer cells as a negative control. […] Accumulation of cells at the G2-M phase for 7a was estimated to be 46.74% versus 23.11% accumulation for control HepG-2 cells.
(3) Cell Cycle Analysis. According to the method described by Léonce et al., the flow cytometric analysis for compound 7a was performed (Supplementary data).

[11] = tested on: VEGFR-2 protein expression; assay: Western blot of VEGFR-2 protein expression; assay type: cell-based, human; conditions: HepG-2 cells, 10 h exposure, versus blank
From the text: (4) Effect of Compound 7a on VEGFR-2 Protein Expression.

[12] = tested on: HepG-2 cells; assay: Annexin V-FITC/PI apoptosis assay; assay type: cell-based, human; conditions: HepG-2, IC50 dose (2.17 μM), 24 h
Method: (5) Apoptotic Cell Subpopulation Determination. To support the fact that derivative 7a induces apoptosis in the HepG-2 cancer cell line, annexin V-FITC and PI double-staining assay protocol was used. […] This is evidence that the antiproliferative activities are associated with a proapoptotic effect of the tested compound.
(4) Apoptotic Cell Subpopulation Determination. The annexin-V-FITC assay for compound 7a on HepG-2 cells was performed according to the reported procedure (Supplementary data).

[13] = tested on: vascular smooth muscle cells (VSMCs); assay: Vascular smooth muscle cell proliferation; assay type: cell-based; conditions: 2.5, 5, and 10 μM, 48 h
Method: In order to examine its effect on the proliferation of vascular smooth muscle cells (VSMCs), VSMCs were treated with increasing concentrations of compound 7a (2.5, 5, and 10 μM) for 48 h. The cellular proliferation results are illustrated in Figure 9.
VSMCs were isolated and cultured following the reported method (Supplementary data).

[14] = tested on: MCF-7, HepG-2, and HCT-116; assay: MTT antiproliferative assay, panel of three tumor cell lines (range over lines); assay type: cell-based; conditions: Homo sapiens, range over the three cancer cell lines, read-out: cytotoxic IC50, range over MCF-7, HepG-2 and HCT-116
Method: as §1, §2

## COc1cccc(NC(=O)c2ccc(NC(=O)c3cccnc3)cc2)c1 [Compound 7a, N-(4-((3-Methoxyphenyl)carbamoyl)phenyl)nicotinamide]
[1]
  IC50: 1.37 µM
[2]
  IC50: 1.05 µM
[3]
  IC50: 1.46 µM
[4]
  IC50: 60.8 µM
[5]
  IC50: 2.17 µM
[6]
  Caspase 3 Conc.: 401.15 pg/mL
[7]
  BAX Conc.: 261.4 pg/mL
  BAX Fold: 12.11 fold
[8]
  Bcl-2 Conc.: 1.25 pg/mL
  Bcl-2 Fold: 0.23 fold
[9]
  TNF-α % inhibition: 87%
[10]
  accumulation of cells at the G2-M phase: 46.74%
  apoptotic cells at the pre-G1 phase: 10.5%
  percentage of cells at G1: 30.15%
  percentage of cells at the S phase: 22.11%
[11]
  effect on VEGFR-2 protein expression: downregulated the expression of VEGFR-2 protein
[12]
  early apoptotic population: 7.41%
  late apoptotic population: 6.80%
[13]
  effect on VSMC proliferation: potent inhibitory effect; also recorded: significant antiproliferative effect at all concentrations tested

## O=C(N/N=C/c1ccccc1Cl)c1ccc(NC(=O)c2cccnc2)cc1 [Compound 11f, (E)-N-(4-(2-(2-Chlorobenzylidene)hydrazine-1-carbonyl)phenyl)-nicotinamide]
[1]
  IC50: 6.15 µM
[2]
  IC50: 7.05 µM
[3]
  IC50: 3.47 µM
[4]
  IC50: 62.4 µM
[5]
  IC50: 4.17 µM
[6]
  Caspase 3 Conc.: 292.11 pg/mL
  Caspase 3 Fold: 5.68 fold
[7]
  BAX Conc.: 142.5 pg/mL
  BAX Fold: 6.60 fold
[8]
  Bcl-2 Conc.: 2.25 pg/mL
  Bcl-2 Fold: 0.42 fold
[9]
  TNF-α % inhibition: 60%
[14]
  IC50: 3.47 to 7.31 µM

## CN(C)c1ccc(/C=N/NC(=O)c2ccc(NC(=O)c3cccnc3)cc2)cc1 [Compound 11g, (E)-N-(4-(2-(4-(Dimethylamino)benzylidene)hydrazine-1-carbonyl)phenyl)-nicotinamide]
[1]
  IC50: 5.73 µM
[2]
  IC50: 6.42 µM
[3]
  IC50: 4.8 µM
[4]
  IC50: 70.1 µM
[5]
  IC50: 6.12 µM
[6]
  Caspase 3 Conc.: 324.36 pg/mL
  Caspase 3 Fold: 6.31 fold
[7]
  BAX Conc.: 160.2 pg/mL
  BAX Fold: 7.42 fold
[8]
  Bcl-2 Conc.: 2.55 pg/mL
  Bcl-2 Fold: 0.48 fold
[9]
  TNF-α % inhibition: 47%
[14]
  IC50: 3.47 to 7.31 µM
